Results published in patent US20260306599A1, “TIMP3-DERIVED TEIPP NEOANTIGENS AND USES THEREOF” (priority 2023, published 2026).
Blank lines part the entries; values can stand above or below the compound they belong to. Residues, ends and D or L forms follow the SMILES beside them. No end group written: not given here.

What was measured:
[1] = test system: SLGDWGAEA-specific T cells; experiment: Interferon-gamma production of SLGDWGAEA-specific T cells stimulated with variant peptides pulsed on HLA-A*0201 positive EBV transformed B-cells; assay type: cell-based, human; conditions: for Recognition (IC50): concentration of peptide for half maximal interferon-gamma production of SLGDWGAEA-specific T cells; for response of peptide 124-specific CD8+ T cell culture to variant peptide: short minimal peptides exogenously pulsed on HLA-A*0201 positive EBV transformed B-cells
Excerpt: The inventors investigated if exchanges into another amino acids would result in a more efficiently processed epitope. First, they examined whether these substitutions would interfere with T cell receptor interaction. The inventors exogenously pulsed the short minimal peptides of Table 4 with the C-terminal valine (V), leucine (L), isoleucine (I), or methionine (M) on HLA-A*0201 positive EBV transformed B-cells and measured the activation of the peptide 124-specific CD8+ T cell culture.

[2] = test system: CD8+ T cells present in peripheral blood mononuclear cells (PBMC); experiment: In vitro expansion of peptide multimer-positive CD8+ T cells from PBMC of healthy donors; assay type: cell-based, human
Protocol: Buffy coats from healthy donors were obtained from Sanquin (Sanquin blood facility). Informed consent was given in writing by all participants. PBMCs were isolated using a ficoll gradient (density 1.077 g/ml). Approximately 500×10^6 PBMCs were incubated with PE-labeled pHLA-A*02:01 tetramers (Flex-T™ HLA-A*02:01 Monomer UVX van Biolegend) for 30 min at RT. Anti-PE magnetic beads (MACS) were used to pull out pHLA-A*02:01 tetramer-positive cells over a MACS LS column as instructed by the manufacturer (Miltenyi Biotech). T cells were cultured in complete IMDM containing 10% human serum (Sanquin blood facility) and 100 U/ml IL-2 (Proleukine; Novartis). Bulk T cells were stimulated every 2 weeks with a mixture of T cells (106), 1 μg/ml synthetic peptide (SLGDWGAEA (SEQ ID NO: 2) (TIMP3)), irradiated PBMCs (10 cells, 50 Gray), and EBV-JY (10W cells, 75 Gray) in complete T cell culture medium supplemented with 100 U/ml IL-2 in 24-well plates (Costar). Culture medium was replenished every 2-3 d with fresh complete T cell medium.
36 peptides (designated 101 to 136) were selected for their capacity to activate CD8+ T cells present in peripheral blood mononuclear cells (PBMC) of maximal 5 healthy donors, following the protocol described earlier (Marnjt et al., 2018). […]

TAP-negative tumor cells = experiment: Preferential recognition of TAP-negative over TAP-positive tumor cells by peptide-stimulated T cell cultures (TEIPP screen); assay type: cell-based, human; conditions: TAP-negative vs TAP-positive tumor cells
Protocol: TCR-transduced or bulk-cultured TEIPP T cells were tested for their ability to selectively recognize the indicated TEIPP epitope presented on TAP impaired tumors by co-culturing them for 18 hours with wild-type (wt), TAP-KO and/or TAP/TIMP3-KO tumor cells at a 5-to-1 target-to-T cell ratio, after which supernatants were harvested and analyzed for cytokine production by GM-CSF, CCL4 and/or IFNg ELISA. Unstimulated and peptide-stimulated T cells were used as negative and positive controls. For some experiments, also endogenous TEIPP antigen-expressing healthy cells such as Epstein-Barr virus (EBV) transformed B-cells, monocytes or monocyte-derived dendritic cells were included as additional controls. Test were performed in triplo in 96 well round bottom plates at 1:1 target to effector ratio.
36 peptides (designated 101 to 136) were selected for their capacity to activate CD8+ T cells present in peripheral blood mononuclear cells (PBMC) of maximal 5 healthy donors, following the protocol described earlier (Marnjt et al., 2018). […] After an in vitro expansion and enrichment of the responding T cell cultures, 18 of the 21 cases could be tested for their capacity to preferentially recognize TAP-negative tumor cells over TAP-positive tumor cells. […] These cultures were stimulated with peptide 105, 113, or 124. […]

[3] = test system: SLGDWGAEA-specific T cell cultures; experiment: Tetramer staining of peptide 124-specific T cell cultures; assay type: binding, human; conditions: three T cell cultures, donors 2028, 4409, 2752
Excerpt: T cell cultures of donors 2028, 4409 and 2752 were stimulated with the peptide SLGDWGAEA (SEQ ID NO:2) and analyzed via flow cytometry for the percentage of CD8+ T cells and the percentage therein of CD8+ T cells that stained positive with the HLA-A*02:01 tetramer presenting peptide SLGDWGAEA. All three SLGDWGAEA-specific T cell cultures comprise more than 97% CD8+ T cells that stained for more than 99% positive with SLGDVGAEA-loaded HLA-A*02:01 tetramers (indicated by HLA-A*02:01: SLGDWGAEA™ in FIG. 1). These SLGDWGAEA-specific T cells were used in subsequent experiments described below. In the present application and figures, peptide SLGDWGAEA is also referred to as ‘peptide 124’ or ‘p124’.
Buffy coats from healthy donors were obtained from Sanquin (Sanquin blood facility). Informed consent was given in writing by all participants. PBMCs were isolated using a ficoll gradient (density 1.077 g/ml). Approximately 500×10^6 PBMCs were incubated with PE-labeled pHLA-A*02:01 tetramers (Flex-T™ HLA-A*02:01 Monomer UVX van Biolegend) for 30 min at RT. Anti-PE magnetic beads (MACS) were used to pull out pHLA-A*02:01 tetramer-positive cells over a MACS LS column as instructed by the manufacturer (Miltenyi Biotech). T cells were cultured in complete IMDM containing 10% human serum (Sanquin blood facility) and 100 U/ml IL-2 (Proleukine; Novartis). […]

[4] = test system: p124-specific CD8 T cells; experiment: Stimulation of p124-specific T cells by exogenous short p124 peptide; assay type: cell-based, human; conditions: FIG. 7
Protocol: The peptide 124-specific T-cell culture from donor 4409 was stimulated with HLA-A*0201 matched monocyte-derived dendritic cells (MoDCs) from three different donors (indicated by MoDCs 0559, MoDC 4553 and MoDC 7401), which were loaded with (10 uM for 20-24h) the indicated synthetic long peptides (SLP) (“p124 long 1” (SEQ ID NO: 22), (“p124 long 2” (SEQ ID NO: 23), (“p124 long 3” (SEQ ID NO: 24)) or with no peptide as background control. The T cell culture incubated with 25 ug/ml the p124-peptide SLGDWGAEA served as positive control for reactivity (indicated by “T cells+p124”). The amount of interferon-gamma (IFNy) or GM-CSF produced is shown on the y-axis in pg/ml.
The synthetic long peptide (SLP) platform is highly immunogenic and successfully applied in therapeutic SLP vaccination for HPV-induced cancers (Kenter et al. 2009; van Poelgeest et al. 2016). Therefore, the inventors examined the efficiency of cross-presentation of long versions of the TIMP3-derived signal peptide SLGDWGAEA (SEQ ID NO: 2) in dendritic cells, using natural flanking amino acids extending the amino-terminus, the carboxy-terminus, or both ends (Table 3). […]

[5] = test system: p124-specific CD8 T cells; experiment: Cross-presentation of synthetic long peptides by monocyte-derived dendritic cells to p124-specific CD8 T cells; assay type: cell-based, human; conditions: moDC loaded with 10 μM SLP; for T cell activation by cross-presented synthetic long peptide (wild type epitope): FIG. 7; for cross-presentation of synthetic long peptide (V-variant epitope): FIG. 8
Protocol: HLA-A*02:01 positive PBMCs were isolated from buffy-coats from consented donors (Sanquin bloodbank, Amsterdam), using a gradient ficoll layer. PBMCs were incubated with anti-CD14 magnetic beads for 20 min at 4° C. and the CD14 positive monocytes were isolated using magnetic separation columns (miltenyi). CD14+ monocyte were cultured in RPMI medium supplemented with 10% FCS, GM-CSF (800 units/ml), and IL-4 (500 units/ml) for 6 days to generate immature monocyte-derived dendritic cells. On day 6, the immature moDCs were incubated with synthetic long peptide (10 μM, Genscript) for 2h, followed by overnight incubation with LPS (20 ng/ml). Matured and loaded moDCs (30,000 cells) were washed and co-cultured with previously established tetramer positive T cells (50,000 cells) for 16 h. Direct presentation of synthetic long peptides was tested by continuous incubation with TIMP3-specific CD8 T cell bulk for 16 h in the absence of moDC. Cytokine release by T cells was then measured in supernatants by ELISA.
The synthetic long peptide (SLP) platform is highly immunogenic and successfully applied in therapeutic SLP vaccination for HPV-induced cancers (Kenter et al. 2009; van Poelgeest et al. 2016). Therefore, the inventors examined the efficiency of cross-presentation of long versions of the TIMP3-derived signal peptide SLGDWGAEA (SEQ ID NO: 2) in dendritic cells, using natural flanking amino acids extending the amino-terminus, the carboxy-terminus, or both ends (Table 3). Monocyte-derived dendritic cells (moDC) were incubated with these three SLPs (P124 long 1-3; SEQ ID NOs: 22-24), then matured, and used as targets for the p124-specific CD8 T cell culture to assess correct processing and HLA-A2 presentation of the minimal TEIPP epitope. Despite the fact that the c-terminus was an alanine, the TIMP3-derived signal peptide SLGDWGAEA (SEQ ID NO: 2) was cross-presented by DCs from a longer peptide to p124-specific CD8 T cells (FIG. 7).
Therefore, the cross-presentation of the V-variant was evaluated as synthetic long peptide extended with natural flanking amino acids (Table 3). After uptake and processing of the five different variants (P124 long V1-3, V1-4, V1-6, V2 and V3; SEQ ID NOs: 25, 110, 111, 26 and 27), moDCs were co-cultured with the p124-specific T cell cultures and cytokine production was measured (FIG. 8). […] The lack of recognition of DCs not loaded with peptide reiterates that moDCs, despite the high expression of TIMP3 (FIG. 4), are not recognized.

Recognition (IC50) ([1]; Table 1): 0.092525 µg/mL
Recognition (IC50) ([1]; Table 4): 0.092525 µg/mL
Compound: SLGDWGAEA [SLGDWGAEA]
donors with outgrowth of p124-specific T cells [2]: 10 donors
recognition pattern of the stimulated T cell culture (classified as TEIPP) (TAP-negative tumor cells): consistent recognition pattern
CD8+ T cells stained positive with SLGDWGAEA-loaded HLA-A*02:01 tetramers [3]: more than 99%
CD8+ T cells stained positive with SLGDWGAEA-loaded HLA-A*02:01 tetramers ([3]; listed as peptide 124): > 99%
T cell stimulation by exogenous pulsing of short peptide [4]: stimulated the T cells

Compound: MTPWLGLIVLLGSWSLGDWGAEA [P124 long 1]
T cell activation by cross-presented synthetic long peptide (wild type epitope) [5]: the T cells were activated

Recognition (IC50) ([1]; Table 1): 0.284929 µg/mL
Recognition (IC50) ([1]; Table 4): 0.284929 µg/mL
Compound: SLGDWGAEI [SLGDWGAEI]

Compound: FLGPWPAAS [peptide 105, FLGPWPAAS, reference compound]
recognition pattern of the stimulated T cell culture (classified as TEIPP) (TAP-negative tumor cells): consistent recognition pattern

Compound: CC[C@H](C)[C@H](N)C(=O)N[C@H](C(=O)N[C@@H](CC(C)C)C(=O)N[C@@H](CC(C)C)C(=O)NCC(=O)N[C@@H](CO)C(=O)N[C@@H](Cc1c[nH]c2ccccc12)C(=O)N[C@@H](CO)C(=O)N[C@@H](CC(C)C)C(=O)NCC(=O)N[C@@H](CC(=O)O)C(=O)N[C@@H](Cc1c[nH]c2ccccc12)C(=O)NCC(=O)N[C@@H](C)C(=O)N[C@@H](CCC(=O)O)C(=O)N[C@@H](C)C(=O)N[C@@H](CS)C(=O)N[C@H](C(=O)N[C@@H](CS)C(=O)N[C@@H](CO)C(=O)N1CCC[C@H]1C(=O)N[C@@H](CO)C(=O)N[C@@H](Cc1c[nH]cn1)C(=O)O)[C@@H](C)O)C(C)C [P124 long 2] (H-IVLLGSWSLGDWGAEACTCSPSH-OH)
T cell activation by cross-presented synthetic long peptide (wild type epitope) [5]: the T cells were activated

Compound: WLGLIVLLGSWSLGDWGAEV [P124 long V1-3]
cross-presentation of synthetic long peptide (V-variant epitope) [5]: less optimal

Compound: CC[C@H](C)[C@H](N)C(=O)N[C@H](C(=O)N[C@@H](CC(C)C)C(=O)N[C@@H](CC(C)C)C(=O)NCC(=O)N[C@@H](CO)C(=O)N[C@@H](Cc1c[nH]c2ccccc12)C(=O)N[C@@H](CO)C(=O)N[C@@H](CC(C)C)C(=O)NCC(=O)N[C@@H](CC(=O)O)C(=O)N[C@@H](Cc1c[nH]c2ccccc12)C(=O)NCC(=O)N[C@@H](C)C(=O)N[C@@H](CCC(=O)O)C(=O)N[C@H](C(=O)N[C@@H](CS)C(=O)N[C@H](C(=O)N[C@@H](CS)C(=O)N[C@@H](CO)C(=O)N1CCC[C@H]1C(=O)N[C@@H](CO)C(=O)N[C@@H](Cc1c[nH]cn1)C(=O)O)[C@@H](C)O)C(C)C)C(C)C [P124 long V2] (H-IVLLGSWSLGDWGAEVCTCSPSH-OH)
cross-presentation of synthetic long peptide (V-variant epitope) [5]: cross-presentation was lost

Compound: LGLIVLLGSWSLGDWGAEV [P124 long V1-4, LGLIVLLGSWSLGDWGAEV]
cross-presentation of synthetic long peptide (V-variant epitope) [5]: enhanced T cell stimulation and more efficient cross-presentation

Compound: LIVLLGSWSLGDWGAEV [P124 long V1-6, LIVLLGSWSLGDWGAEV]
cross-presentation of synthetic long peptide (V-variant epitope) [5]: enhanced T cell stimulation and more efficient cross-presentation

Compound: SLGDWGAEL [SLGDWGAEL]
response of peptide 124-specific CD8+ T cell culture to variant peptide [1]: No response was observed

Compound: CC(C)C[C@H](NC(=O)[C@@H](N)CO)C(=O)NCC(=O)N[C@@H](CC(=O)O)C(=O)N[C@@H](Cc1c[nH]c2ccccc12)C(=O)NCC(=O)N[C@@H](C)C(=O)N[C@@H](CCC(=O)O)C(=O)N[C@@H](C)C(=O)N[C@@H](CS)C(=O)N[C@H](C(=O)N[C@@H](CS)C(=O)N[C@@H](CO)C(=O)N1CCC[C@H]1C(=O)N[C@@H](CO)C(=O)N[C@@H](Cc1c[nH]cn1)C(=O)N1CCC[C@H]1C(=O)N[C@@H](CCC(N)=O)C(=O)N[C@@H](CC(=O)O)C(=O)N[C@@H](C)C(=O)N[C@@H](Cc1ccccc1)C(=O)N[C@@H](CS)C(=O)N[C@@H](CC(N)=O)C(=O)O)[C@@H](C)O [P124 long 3] (H-SLGDWGAEACTCSPSHPQDAFCN-OH)
T cell activation by cross-presented synthetic long peptide (wild type epitope) [5]: No recognition was observed

Recognition (IC50) ([1]; Table 1): 0.001471 µg/mL
Recognition (IC50) ([1]; Table 4): 0.001471 µg/mL
Compound: SLGDWGAEV [SLGDWGAEV]
improvement of the stimulation of p124-specific T cells vs. c-terminal alanine peptide ([1]; specifically at the lower peptide concentration range): 61 fold

Compound: SLGDWGAEM [SLGDWGAEM]
response of peptide 124-specific CD8+ T cell culture to variant peptide [1]: No response was observed
